Tests used:
Assay in all cases: Platform comparison of DUB substrates, signal to background
Type in all cases: biochemical
Settings in all cases: DUB 10 nM; signal at 30 minutes; Ub-LUC 100 nM, DUB-Glo substrate 20 μM, Ub-AMC/Ub-rho 250 nM
AMSH = target: T1, AMSH (Homo sapiens, UniProt O95630)
T1 sequence (O95630 1-424): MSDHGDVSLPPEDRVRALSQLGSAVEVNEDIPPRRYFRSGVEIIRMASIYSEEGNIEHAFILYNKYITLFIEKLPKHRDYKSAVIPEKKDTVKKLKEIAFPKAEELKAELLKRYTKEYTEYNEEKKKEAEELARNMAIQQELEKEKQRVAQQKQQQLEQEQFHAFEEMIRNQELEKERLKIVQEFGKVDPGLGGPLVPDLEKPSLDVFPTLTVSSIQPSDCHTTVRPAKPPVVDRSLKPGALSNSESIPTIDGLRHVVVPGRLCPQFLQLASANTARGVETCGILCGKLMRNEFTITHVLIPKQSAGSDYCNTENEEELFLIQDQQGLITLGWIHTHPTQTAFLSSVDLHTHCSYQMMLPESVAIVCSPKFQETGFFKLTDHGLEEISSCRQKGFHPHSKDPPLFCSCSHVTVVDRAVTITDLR
Protocol: (§1) For Ub-AMC and Ub-Rhodamine110, all enzymes were diluted into 50 mM Tris, pH 8.0, 5 mM DTT, 0.05% CHAPS to a final concentration of 10 nM. […] Either Ub-AMC or Ub-Rhodamine110 (final reaction concentration equal to 250 nM) were diluted into 50 mM Tris, pH 8.0, 5 mM DTT, 0.05% (w/v) CHAPS. […] For Ub-Rhodamine110, fluorescence was monitored with filters corresponding to excitation at 485 nm and emission at 531 nm.

Ataxin3-like = target: T2, Ataxin3-like (Homo sapiens, UniProt Q9H3M9)
T2 sequence (Q9H3M9 1-355): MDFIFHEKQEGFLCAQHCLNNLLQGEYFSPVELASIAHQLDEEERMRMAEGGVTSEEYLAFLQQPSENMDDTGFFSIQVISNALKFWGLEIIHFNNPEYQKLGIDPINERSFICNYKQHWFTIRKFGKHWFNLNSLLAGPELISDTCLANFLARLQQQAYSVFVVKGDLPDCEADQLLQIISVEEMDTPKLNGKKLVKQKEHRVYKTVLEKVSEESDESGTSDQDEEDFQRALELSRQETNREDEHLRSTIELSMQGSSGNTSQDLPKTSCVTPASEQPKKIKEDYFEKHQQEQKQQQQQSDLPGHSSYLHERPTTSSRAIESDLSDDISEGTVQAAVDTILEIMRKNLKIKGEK
Protocol: as §1

JosD2 = target: T3, JosD2 (Homo sapiens, UniProt Q8TAC2)
T3 sequence (Q8TAC2 1-188): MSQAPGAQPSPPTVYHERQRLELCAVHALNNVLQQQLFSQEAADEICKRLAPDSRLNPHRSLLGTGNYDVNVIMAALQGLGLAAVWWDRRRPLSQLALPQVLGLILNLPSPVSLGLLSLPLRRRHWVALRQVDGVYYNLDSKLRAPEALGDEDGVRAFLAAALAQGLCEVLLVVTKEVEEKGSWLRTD
Protocol: as §1

USP14 = USP14 (Homo sapiens, UniProt P54578)
Protocol: as §1

JosD1 = JosD1 (Homo sapiens, UniProt Q15040)
Protocol: as §1

USP20 = USP20 (Homo sapiens, UniProt Q9Y2K6)
Protocol: as §1

Otub2 = target: T4, Otub2 (Homo sapiens, UniProt Q96DC9)
T4 sequence (Q96DC9 1-234): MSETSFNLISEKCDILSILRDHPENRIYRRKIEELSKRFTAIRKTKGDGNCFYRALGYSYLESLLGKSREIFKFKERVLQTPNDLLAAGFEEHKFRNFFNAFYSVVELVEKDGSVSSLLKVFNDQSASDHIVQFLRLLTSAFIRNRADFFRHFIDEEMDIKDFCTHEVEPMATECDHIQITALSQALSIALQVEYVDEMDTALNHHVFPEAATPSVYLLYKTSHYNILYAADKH
Protocol: as §1

Ataxin3 = Ataxin3 (Homo sapiens, UniProt P54252)
Protocol: as §1

UCHL5 = target: T5, UCHL5 (Homo sapiens, UniProt Q9Y5K5)
T5 sequence (Q9Y5K5 1-329): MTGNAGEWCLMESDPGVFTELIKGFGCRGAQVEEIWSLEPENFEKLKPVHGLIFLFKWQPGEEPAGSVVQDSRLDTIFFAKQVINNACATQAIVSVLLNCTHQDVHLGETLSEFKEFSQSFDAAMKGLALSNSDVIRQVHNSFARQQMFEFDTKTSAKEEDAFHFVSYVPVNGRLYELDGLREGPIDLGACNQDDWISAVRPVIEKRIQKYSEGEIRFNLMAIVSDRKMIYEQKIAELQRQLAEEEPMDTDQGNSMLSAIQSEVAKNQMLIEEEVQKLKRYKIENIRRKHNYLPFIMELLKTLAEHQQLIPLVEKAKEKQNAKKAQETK
Protocol: as §1

Sequence of USP14 (P54578 whole entry, species assumed): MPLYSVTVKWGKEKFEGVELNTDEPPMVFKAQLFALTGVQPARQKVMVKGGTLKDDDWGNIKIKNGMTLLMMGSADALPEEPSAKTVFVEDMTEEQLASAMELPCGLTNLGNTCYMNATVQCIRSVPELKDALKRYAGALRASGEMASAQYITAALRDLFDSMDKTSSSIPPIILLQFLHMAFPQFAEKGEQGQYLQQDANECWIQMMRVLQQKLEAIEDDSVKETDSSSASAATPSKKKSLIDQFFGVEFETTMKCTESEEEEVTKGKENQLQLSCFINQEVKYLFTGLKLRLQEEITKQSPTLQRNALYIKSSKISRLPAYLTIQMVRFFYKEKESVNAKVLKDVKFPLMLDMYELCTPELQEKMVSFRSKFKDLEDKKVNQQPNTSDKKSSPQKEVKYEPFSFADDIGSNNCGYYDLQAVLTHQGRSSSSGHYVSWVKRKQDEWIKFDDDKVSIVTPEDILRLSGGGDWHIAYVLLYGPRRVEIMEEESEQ
Sequence of USP20 (Q9Y2K6 whole entry, species assumed): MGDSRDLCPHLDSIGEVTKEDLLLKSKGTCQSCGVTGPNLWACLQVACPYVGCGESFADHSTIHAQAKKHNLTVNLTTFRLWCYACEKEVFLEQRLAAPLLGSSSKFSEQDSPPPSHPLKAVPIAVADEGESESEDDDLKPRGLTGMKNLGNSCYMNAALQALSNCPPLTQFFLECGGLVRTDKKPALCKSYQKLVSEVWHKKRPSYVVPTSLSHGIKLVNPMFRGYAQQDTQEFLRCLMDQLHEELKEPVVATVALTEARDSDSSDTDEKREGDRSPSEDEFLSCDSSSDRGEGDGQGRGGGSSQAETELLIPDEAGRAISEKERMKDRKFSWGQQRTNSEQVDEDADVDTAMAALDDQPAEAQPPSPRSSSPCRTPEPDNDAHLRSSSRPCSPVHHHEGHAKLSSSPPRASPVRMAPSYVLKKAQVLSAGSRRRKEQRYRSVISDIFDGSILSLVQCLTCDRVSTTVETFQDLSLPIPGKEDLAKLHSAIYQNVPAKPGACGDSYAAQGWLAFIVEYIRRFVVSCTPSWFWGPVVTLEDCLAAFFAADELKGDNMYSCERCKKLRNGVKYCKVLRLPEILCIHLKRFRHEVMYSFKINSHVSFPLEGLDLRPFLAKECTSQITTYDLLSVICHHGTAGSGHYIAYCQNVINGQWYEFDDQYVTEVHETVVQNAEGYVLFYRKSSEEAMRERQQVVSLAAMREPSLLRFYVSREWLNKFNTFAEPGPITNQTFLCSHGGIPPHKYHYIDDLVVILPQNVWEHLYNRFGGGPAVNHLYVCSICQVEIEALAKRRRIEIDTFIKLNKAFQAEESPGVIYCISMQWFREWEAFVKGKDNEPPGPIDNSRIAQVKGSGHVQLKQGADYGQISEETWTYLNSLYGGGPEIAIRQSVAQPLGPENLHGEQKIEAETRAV
Sequence of Ataxin3 (P54252 whole entry, species assumed): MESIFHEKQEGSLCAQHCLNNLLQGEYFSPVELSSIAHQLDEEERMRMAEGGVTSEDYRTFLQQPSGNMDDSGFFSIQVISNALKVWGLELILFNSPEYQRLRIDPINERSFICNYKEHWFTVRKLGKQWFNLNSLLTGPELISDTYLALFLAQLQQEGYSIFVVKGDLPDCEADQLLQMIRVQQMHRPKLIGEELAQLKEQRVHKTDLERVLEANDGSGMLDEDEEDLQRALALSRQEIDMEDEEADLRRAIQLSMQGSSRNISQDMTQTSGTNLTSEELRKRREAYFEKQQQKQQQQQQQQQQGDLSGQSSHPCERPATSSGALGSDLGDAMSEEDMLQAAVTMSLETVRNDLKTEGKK

Substance | Signal to Background value (AMSH) | Signal to Background value (Ataxin3-like) | Signal to Background value (JosD2) | Signal to Background value (USP14) | Signal to Background value (JosD1) | Signal to Background value (USP20) | Signal to Background value (Otub2) | Signal to Background value (Ataxin3) | Signal to Background value (UCHL5)
Ub(1-76)-aminoluciferin [Ub-LUC] | 16 | 120 | 760 | 6.0 | 74 | 473 | 980 | 4.0 | 1700
Z-Arg-Leu-Arg-Gly-Gly (SEQ ID NO: 1)-amino-luciferin [DUB-glo ™] | 1.4 | 1.5 | 2.1 | 1.6 | 1.3 | 2.8 | 1.3 | 1.3 | 1.4

Source: US20120058499A1, “Bioluminescent Detection of Protease Activity” (priority 2010, published 2012)
